Data published in US20090215029A1, “METHODS OF ISOLATING AND PURIFYING NUCLEIC ACID-BINDING BIOMOLECULES AND COMPOSITIONS INCLUDING SAME” (CytoCure, Inc., priority 2007, published 2009).
Where two headings read alike, the source gives them in different places.

What was measured:
[1] = system: nucleic acids to a bound factor; experiment: Cross-linking / fixative activity: effectiveness in covalently linking nucleic acids to a bound factor; format: biochemical
Protocol: Several cross-linking fixatives incorporating a nucleic acid binding group covalently coupled with a primary amine-binding group were synthesized. These agents were assayed to determine effectiveness covalently linking nucleic acids to a bound factor.

whole cells = experiment: Combination crosslinking, first and second agents added to whole cells; format: cell-based; conditions: combination with second agent EGS (amine binding); both added more or less simultaneously to whole cells, not less than 30 minutes, room temperature to 37 Celsius
Protocol: Note: For Combination crosslinking experiments, both the First and Second agents are added more or less simultaneously to whole cells (ethidium bromide requires prior membrane permeabilization) for not less than 30 minutes at room temperature to 37 Celsius.

CC[n+]1c(-c2ccccc2)c2cc(N=[N+]=[N-])ccc2c2ccc(NC(=O)CCC(=O)OCCOC(=O)CCC(=O)ON3C(=O)CCC3=O)cc21.[Br-] [B, 8-azido-3-(4-(2-(4-(2,5-dioxopyrrolidin-1-yloxy)-4-oxobutanoyloxy)ethoxy)-4-oxobutanamido)-5-ethyl-6-phenylphenanthridinium bromide]
Activity ([1]; synthesized compounds: DNA-binding moiety coupled with NHS ester protein-binding moiety): Strong

Cc1oc2c(C)c3oc(=O)cc(C)c3cc2c1CN [4-aminomethyl trioxsalen]
Activity (whole cells): Weak

O=CC=O [glyoxal]
Activity as fixative agent [1]: some activity

O=CCCCC=O [glutaraldehyde]
Activity as fixative agent ([1]; additional fixative agents): some activity

O=C(CCC(=O)OCCOC(=O)CCC(=O)ON1C(=O)CCC1=O)NC(Cc1ccc(N(CCCl)CCCl)cc1)C(=O)O (stereo not drawn) [A, 3-(4-(bis(2-chloroethyl)amino)phenyl)-2-(4-(2-(4-(2,5-dioxopyrrolidin-1-yloxy)-4-oxobutanoyloxy)ethoxy)-4-oxobutanamido)propanoic acid]
Activity [1]: Strong

2,5-dioxopyrrolidin-1-yl-2-(4-(3-methylthioureido)-4-oxobutanoyloxy)ethyl succinate chloro(ethylenediamine)platinum(II) complex
Activity [1]: Some

CC[n+]1c(-c2ccccc2)c2cc(N=[N+]=[N-])ccc2c2ccc(N)cc21.[Br-] [Ethidium bromide monoazide, 3-Amino-8-azido-5-ethyl-6-phenylphenanthridinium bromide]
Activity (whole cells): Strong

N.N.[Cl][Pt][Cl] [Cisplatin]
Activity (whole cells): Strong

C1OC1C1CO1 (stereo not drawn) [1,3 butadiene diepoxide]
Activity as fixative agent [1]: some activity
